From article PMC3625062 (MedChemComm, 2012)

Experiments:
PDE10A = PDE10A (Homo sapiens, UniProt Q9Y233); assay: PDE10A inhibition, [3H]cAMP hydrolysis scintillation proximity assay; assay type: biochemical
R6/2 mice = conditions: behavioural symptoms such as rotarod performance improved; cited from earlier work

Chain of PDE10A (Q9Y233 whole entry): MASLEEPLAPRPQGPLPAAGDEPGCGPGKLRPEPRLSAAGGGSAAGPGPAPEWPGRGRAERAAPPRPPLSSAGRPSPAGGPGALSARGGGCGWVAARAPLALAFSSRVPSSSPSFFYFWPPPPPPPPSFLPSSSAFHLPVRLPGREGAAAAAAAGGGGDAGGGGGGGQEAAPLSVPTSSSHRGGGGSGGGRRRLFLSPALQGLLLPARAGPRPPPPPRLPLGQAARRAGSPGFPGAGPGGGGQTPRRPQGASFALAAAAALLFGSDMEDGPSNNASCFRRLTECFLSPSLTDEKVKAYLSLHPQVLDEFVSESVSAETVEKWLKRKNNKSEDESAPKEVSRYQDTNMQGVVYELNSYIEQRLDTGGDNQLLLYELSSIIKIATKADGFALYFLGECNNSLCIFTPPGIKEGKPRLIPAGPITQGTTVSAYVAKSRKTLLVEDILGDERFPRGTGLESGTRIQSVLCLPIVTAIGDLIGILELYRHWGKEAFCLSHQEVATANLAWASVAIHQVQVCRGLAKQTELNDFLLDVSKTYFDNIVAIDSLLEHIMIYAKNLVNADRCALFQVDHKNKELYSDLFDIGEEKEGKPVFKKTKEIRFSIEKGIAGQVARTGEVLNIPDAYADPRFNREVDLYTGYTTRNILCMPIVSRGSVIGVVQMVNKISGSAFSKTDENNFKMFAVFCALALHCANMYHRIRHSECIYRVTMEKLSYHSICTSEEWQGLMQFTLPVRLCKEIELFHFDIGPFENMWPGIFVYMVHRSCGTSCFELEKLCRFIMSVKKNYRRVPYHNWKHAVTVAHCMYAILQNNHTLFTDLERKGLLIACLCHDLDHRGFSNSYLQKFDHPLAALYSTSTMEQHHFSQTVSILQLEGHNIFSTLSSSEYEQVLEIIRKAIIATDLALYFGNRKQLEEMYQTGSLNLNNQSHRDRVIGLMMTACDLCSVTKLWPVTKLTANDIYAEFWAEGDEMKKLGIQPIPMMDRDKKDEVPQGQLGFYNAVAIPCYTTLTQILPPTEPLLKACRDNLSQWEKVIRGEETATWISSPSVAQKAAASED

SMILES: COc1cccc2ccc(COc3ccc(-c4c(-c5ccncc5)cnn4C)cc3)nc12 [Compound 11f]
- fold higher PDE10A IC50 value than 11e (PDE10A; IC50 of 8-methoxy 11f versus 7-methoxy 11e): 2 fold

SMILES: FC(F)(F)Cn1cc(-c2ccncc2)c(-c2ccc(OCc3ccc4ccccc4n3)cc2)n1 [TP-10, 2-[4-[pyridin-4-yl-1-(2,2,2-trifluoroethyl)-1H-pyrazol-3-yl]-phenoxymethyl]-quinoline]
- neuropathology and symptoms in R6/2 mice (R6/2 mice): ameliorated

SMILES: COc1cc(CSc2ccc(-c3nn(C)cc3-c3ccncc3)cc2)nc2ccccc12 [Compound 10g]
- fold less potent for PDE10A than 10b (PDE10A; IC50 versus the corresponding O-atom bridged analogue 10b): 600 fold
